According to US6369069B1 (Aventis Pharma Deutschland GmbH, priority 1998, dated 2002):

Each molecule was assayed on Na^+-dependent Cl^−/HCO3^− exchanger (NCBE) (assay: Inhibition of the Na+-dependent Cl−/HCO3− exchanger (NCBE) in human endothelial cells (pHi recovery, BCECF fluorescence, FLIPR)). Conditions: 10 μM.
Format: cell-based
In short: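 ECV-304 cells loaded with 5 μM BCECF-AM in NH4Cl-containing saline, then placed in Na+/HCO3−-free buffer to acidify. pHi recovery started with Na+/HCO3− buffer (50 μM HOE 642) plus compound at various concentrations. Fluorescence kinetics over 2 min at 35 °C, normalised to 100% and 0% (HCO3−-free) controls.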

Going from `N#CNS(=O)(=O)c1ccccc1-c1ccc(CN(Cc2cccs2)C(=O)CCC2CCCCC2)cc1` [Example 255] to `N#CNS(=O)(=O)c1ccccc1-c1ccc(CN(Cc2ccc(Cl)cc2)C(=O)CCC2CCCCC2)cc1` [Example 10], the “Residual activity % of the NCBE at 10 μM” value rises from 61.0% to 84.9%.

Going from `Cc1ccc(CN(Cc2ccc(-c3ccccc3S(=O)(=O)NC#N)cc2)C(=O)C(C(=O)Cc2ccccc2)c2ccccc2)cc1` (centres unmarked) [Example 135] to `Cc1ccc(CN(Cc2ccc(-c3ccccc3S(=O)(=O)NC#N)cc2)C(=O)Cc2ccccc2)cc1` [Example 125], the “Residual activity % of the NCBE at 10 μM” value falls from 97.4% to 63.6%.

Compared with `N#CNS(=O)(=O)c1ccccc1-c1ccc(CN(Cc2cccc(Cl)c2)C(=O)CCS(=O)(=O)c2ccccc2)cc1` [Example 281], `N#CNS(=O)(=O)c1ccccc1-c1ccc(CN(Cc2ccc(Cl)c(Cl)c2)C(=O)CCCCc2ccccc2)cc1` [Example 262] is lower in “Residual activity % of the NCBE at 10 μM” value: 68.6% for the first, 45.3% for the second.

First: CN(Cc1ccc(-c2ccccc2S(=O)(=O)NC#N)cc1)C(=O)C(=O)c1cccs1 [Example 198]
Second: N#CNS(=O)(=O)c1ccccc1-c1ccc(CN(Cc2ccccn2)C(=O)C(=O)c2cccs2)cc1 [Example 196]
The “Residual activity % of the NCBE at 10 μM” value of the first is lower: 51.1% for the first, 62.8% for the second.

Going from `COc1ccc(CN(Cc2ccc(-c3ccccc3S(=O)(=O)NC#N)cc2)C(=O)Cc2cccc(OC)c2)cc1` [Example 21] to `COc1ccc(CC(=O)N(Cc2ccc(-c3ccccc3S(=O)(=O)NC#N)cc2)Cc2ccccc2Cl)cc1` [Example 174], the “Residual activity % of the NCBE at 10 μM” value falls from 52.3% to 50.2%.

Compared with `N#CNS(=O)(=O)c1ccccc1-c1ccc(CN(Cc2cccs2)C(=O)Cc2ccccc2[N+](=O)[O-])cc1` [Example 252], `N#CNS(=O)(=O)c1ccccc1-c1ccc(CN(Cc2ccc(F)cc2)C(=O)Cc2cccs2)cc1` [Example 147] is higher in “Residual activity % of the NCBE at 10 μM” value: 44.5% for the first, 53.2% for the second.

First: N#CNS(=O)(=O)c1ccccc1-c1ccc(CN(Cc2ccccc2)C(=O)C(=O)c2ccco2)cc1 [Example 245]
Second: N#CNS(=O)(=O)c1ccccc1-c1ccc(CN(Cc2cccs2)C(=O)C(=O)c2ccco2)cc1 [Example 254]
The “Residual activity % of the NCBE at 10 μM” value of the first is higher: 73.0% for the first, 64.5% for the second.

Going from `COCCC(=O)N(Cc1ccc(-c2ccccc2S(=O)(=O)NC#N)cc1)C1CCc2ccccc21` (centres unmarked) [Example 324] to `N#CNS(=O)(=O)c1ccccc1-c1ccc(CN(C(=O)CCOc2ccccc2)C2CCc3ccccc32)cc1` (centres unmarked) [Example 344], the “Residual activity % of the NCBE at 10 μM” value falls from 60.5% to 52.2%.

First: COCCC(=O)N(Cc1ccc(-c2ccccc2S(=O)(=O)NC#N)cc1)Cc1cccc(Cl)c1Cl [Example 319]
Second: N#CNS(=O)(=O)c1ccccc1-c1ccc(CN(Cc2ccccc2Cl)C(=O)Cc2ccccc2)cc1 [Example 121]
The “Residual activity % of the NCBE at 10 μM” value of the first is lower: 38.0% for the first, 72.1% for the second.

Going from `N#CNS(=O)(=O)c1ccccc1-c1ccc(CN(Cc2ccc(Cl)cc2Cl)C(=O)Cc2ccc(O)cc2)cc1` [Example 283] to `COc1ccc(CN(Cc2ccc(-c3ccccc3S(=O)(=O)NC#N)cc2)C(=O)Cc2ccc(Cl)cc2)c(OC)c1` [Example 154], the “Residual activity % of the NCBE at 10 μM” value falls from 80.0% to 36.2%.

Going from `N#CNS(=O)(=O)c1ccccc1-c1ccc(CN(Cc2cccc(-c3ccccc3)c2)C(=O)Cc2cccs2)cc1` [Example 317] to `N#CNS(=O)(=O)c1ccccc1-c1ccc(CN(Cc2ccc3ccccc3c2)C(=O)Cc2cccs2)cc1` [Example 310], the “Residual activity % of the NCBE at 10 μM” value rises from 14.5% to 47.7%.

First: N#CNS(=O)(=O)c1ccccc1-c1ccc(CN(CC2CCCCC2)C(=O)CCCCc2ccccc2)cc1 [Example 266]
Second: N#CNS(=O)(=O)c1ccccc1-c1ccc(CN(CCCc2ccccc2)C(=O)CCCc2cccs2)cc1 [Example 186]
The “Residual activity % of the NCBE at 10 μM” value of the first is higher: 79.7% for the first, 9.7% for the second.

Going from `COc1cc(CN(Cc2ccc(-c3ccccc3S(=O)(=O)NC#N)cc2)C(=O)Cc2cccs2)cc(OC)c1OC` [Example 145] to `COc1ccc(CC(=O)N(Cc2ccc(-c3ccccc3S(=O)(=O)NC#N)cc2)Cc2cc(OC)c(OC)c(OC)c2)cc1` [Example 176], the “Residual activity % of the NCBE at 10 μM” value rises from 39.6% to 83.9%.

Compared with `COc1cc(C(=O)N(Cc2ccccc2)Cc2ccc(-c3ccccc3S(=O)(=O)NC#N)cc2)cc(OC)c1OC` [Example 49], `COc1ccc(CN(Cc2ccc(-c3ccccc3S(=O)(=O)NC#N)cc2)C(=O)c2ccccc2F)cc1` [Example 39] is lower in “Residual activity % of the NCBE at 10 μM” value: 75.8% for the first, 51.3% for the second.

Going from `COc1ccc(CC(=O)N(Cc2ccc(-c3ccccc3S(=O)(=O)NC#N)cc2)CC2CC2)cc1` [Example 175] to `CC(C)(C)CC(=O)N(Cc1ccc(-c2ccccc2S(=O)(=O)NC#N)cc1)CC1CC1` [Example 161], the “Residual activity % of the NCBE at 10 μM” value falls from 93.2% to 81.6%.

Going from `N#CNS(=O)(=O)c1ccccc1-c1ccc(CN(Cc2nc3ccccc3[nH]2)C(=O)CCCc2cccs2)cc1` [Example 192] to `N#CNS(=O)(=O)c1ccccc1-c1ccc(CN(Cc2nc3ccccc3[nH]2)C(=O)Cc2csc3ccccc23)cc1` [Example 216], the “Residual activity % of the NCBE at 10 μM” value rises from 49.1% to 62.2%.

Compared with `N#CNS(=O)(=O)c1ccccc1-c1ccc(CN(Cc2ccc(C(F)(F)F)cc2)C(=O)C(c2ccccc2)c2ccccc2)cc1` [Example 119], `N#CNS(=O)(=O)c1ccccc1-c1ccc(CN(Cc2ccc(C(F)(F)F)cc2)C(=O)c2cccs2)cc1` [Example 89] is lower in “Residual activity % of the NCBE at 10 μM” value: 75.7% for the first, 67.6% for the second.

Compared with `COC(=O)C(c1ccccc1)N(Cc1ccc(-c2ccccc2S(=O)(=O)NC#N)cc1)C(=O)Cc1cccs1` (centres unmarked) [Example 268], `COC(=O)C(Cc1ccccc1)N(Cc1ccc(-c2ccccc2S(=O)(=O)NC#N)cc1)C(=O)C(=O)c1cccs1` (centres unmarked) [Example 201] is lower in “Residual activity % of the NCBE at 10 μM” value: 79.3% for the first, 69.6% for the second.

Compared with `CC(C)(C)c1ccc(C(=O)N(CCO)Cc2ccc(-c3ccccc3S(=O)(=O)NC#N)cc2)cc1` [Example 32], `COc1ccccc1C(=O)N(Cc1ccc(-c2ccccc2S(=O)(=O)NC#N)cc1)CC1CCCO1` (centres unmarked) [Example 338] is lower in “Residual activity % of the NCBE at 10 μM” value: 68.0% for the first, 50.7% for the second.

First: N#CNS(=O)(=O)c1ccccc1-c1ccc(CN(Cc2nc3ccccc3[nH]2)C(=O)Cc2c[nH]c3ccccc23)cc1 [Example 208]
Second: N#CNS(=O)(=O)c1ccccc1-c1ccc(CN(Cc2cccc3ccccc23)C(=O)Cc2ccccc2Br)cc1 [Example 277]
The “Residual activity % of the NCBE at 10 μM” value of the first is higher: 50.7% for the first, 36.3% for the second.

First: N#CNS(=O)(=O)c1ccccc1-c1ccc(CN(Cc2ccc(Cl)c(Cl)c2)C(=O)C(NC(=O)OCc2ccccc2)c2ccccc2)cc1 (centres unmarked) [Example 260]
Second: C#CCN(Cc1ccc(-c2ccccc2S(=O)(=O)NC#N)cc1)C(=O)C(NC(=O)OCc1ccccc1)c1ccccc1 (centres unmarked) [Example 246]
The “Residual activity % of the NCBE at 10 μM” value of the first is higher: 69.8% for the first, 65.0% for the second.

First: N#CNS(=O)(=O)c1ccccc1-c1ccc(CN(CCCc2ccccc2)C(=O)C(=O)c2cccs2)cc1 [Example 194]
Second: C[C@H](c1ccccc1)N(Cc1ccc(-c2ccccc2S(=O)(=O)NC#N)cc1)C(=O)Cc1ccccc1 [Example 128]
The “Residual activity % of the NCBE at 10 μM” value of the first is lower: 61.1% for the first, 61.4% for the second.

Going from `N#CNS(=O)(=O)c1ccccc1-c1ccc(CN(C(=O)Cc2cccs2)C2CCCCC2)cc1` [Example 30] to `N#CNS(=O)(=O)c1ccccc1-c1ccc(CN(C(=O)CCCCc2cccs2)C2CC2)cc1` [Example 221], the “Residual activity % of the NCBE at 10 μM” value falls from 95.2% to 72.3%.

First: COc1ccccc1CN(Cc1ccc(-c2ccccc2S(=O)(=O)NC#N)cc1)C(=O)c1cc2ccccc2s1 [Example 74]
Second: N#CNS(=O)(=O)c1ccccc1-c1ccc(CN(Cc2ccc3c(c2)OCO3)C(=O)c2ccccc2Cl)cc1 [Example 107]
The “Residual activity % of the NCBE at 10 μM” value of the first is lower: 54.7% for the first, 96.4% for the second.

`COc1cccc(CN(Cc2ccc(-c3ccccc3S(=O)(=O)NC#N)cc2)C(=O)NC2CCCCC2)c1` [Example 304] was tested, and the “Residual activity % of the NCBE at 10 μM” value was 56.0%.

Same assay, conditions: 10 μM compound; human endothelial cells (ECV-304); related to 100% and 0% pHi recovery controls

In the case of `CS(=O)(=O)c1cc(-c2ccccc2S(=O)(=O)NC#N)ccc1CN(Cc1ccccc1)S(=O)(=O)c1cccs1` [Example 557, 4′-{[Benzyl(thiophene-2-sulfonyl)amino]methyl}-3′-methylsulfonylbiphenyl-2-sulfonylcyanamide], the “Residual activity of the NCBE at 10 μM” value is reported as 14%.

Same assay, conditions: compound at 10 μM; R(3) to R(7) hydrogen series

First: N#CNS(=O)(=O)c1ccccc1-c1ccc(CN(Cc2ccccc2F)C(=O)CC2CCCC2)cc1 [Example 366]
Second: N#CNS(=O)(=O)c1ccccc1-c1ccc(CN(Cc2ccccc2)C(=O)Cc2ccco2)cc1 [Example 389]
The “Residual activity % of the NCBE at 10 μM” value of the first is lower: 38.4% for the first, 51.5% for the second.

Going from `N#CNS(=O)(=O)c1ccccc1-c1ccc(CN(CC2(c3ccccc3)CCCC2)C(=O)Cc2ccco2)cc1` [Example 394] to `CCC(CC)(CN(Cc1ccc(-c2ccccc2S(=O)(=O)NC#N)cc1)C(=O)Cc1cccs1)c1ccc(OC)cc1` [Example 395], the “Residual activity % of the NCBE at 10 μM” value falls from 72.5% to 50.9%.

Same assay, conditions: compound at 10 μM; sub-table with R7 substituent

Going from `Cc1ccc(-c2ccc(CN(Cc3cccc(Cl)c3Cl)C(=O)Cc3ccsc3)cc2)c(S(=O)(=O)NC#N)c1` [Example 544] to `Cc1ccc(-c2ccc(CN(Cc3cccs3)C(=O)Cc3ccsc3)cc2)c(S(=O)(=O)NC#N)c1` [Example 541], the “Residual activity % of the NCBE at 10 μM” value falls from 82.2% to 52.8%.

Going from `Cc1ccc(-c2ccc(CN(Cc3cccc4ccccc34)C(=O)Cc3cccs3)cc2)c(S(=O)(=O)NC#N)c1` [Example 514] to `Cc1ccc(-c2ccc(CN(Cc3ccccc3F)C(=O)Cc3cccs3)cc2)c(S(=O)(=O)NC#N)c1` [Example 519], the “Residual activity % of the NCBE at 10 μM” value rises from 74.9% to 95.6%.

For `Cc1ccc(-c2ccc(CN(Cc3ccccc3)C(=O)Cc3cccs3)cc2)c(S(=O)(=O)NC#N)c1` [Example 513], the “Residual activity % of the NCBE at 10 μM” value was 88.6%.
